Data: ChEMBL document CHEMBL1857833, “Screening and optimization of specific chemical series against human African Trypanosomiasis (HAT)”
Converted amounts (≈) assume the structure as drawn. “And” between values parts separate entries of the source, which are not always exact repeats. Equal entries are not always repeated.

Columns and labels:
[1] = (§1) DNDI: Cytotoxicity against L929 mouse fibroblasts, 72 hour.; format: toxicity, cell-based; details: mouse, L929 mouse fibroblasts
Trypanosoma brucei [2] = assay: DNDI: Inhibition of Human African Trypanosomiasis, SBRI 427, in vitro; format: functional, organism-based
[3] = DNDI: Lipophilicity measured in Chromatographic hydrophobicity index (CHI) assay, pH 7.4; format: physicochemical; details: buffer
[4] = DNDI: half-life in mouse S9 microsomes at a concentration of 1uM; format: ADME, subcellular, Liver, S9 fraction
[5] = DNDI: half-life in mouse S9 microsomes at a concentration of 10uM; format: ADME, subcellular, Liver, S9 fraction
[6] = DNDI: Solubility in phosphate buffered saline at pH7.4 measured by nephelometry at room temperature (NEPH-RT); format: physicochemical; details: pH 7.4
Trypanosoma cruzi = assay: DNDI: Inhibition of Chagas Disease parasite Trypanosoma cruzi (Tulahuen LacZ, Clone C4), in vitro.; format: functional, organism-based
[7] = (§2) DNDI: Cytotoxicity against L929 mouse fibroblasts, CYTO-SP, 24 hour; format: toxicity, cell-based; details: mouse, L929 mouse fibroblasts
[8] = DNDI: Cytotoxicity against L-6 rat myoblasts from skeletal muscle cells; format: toxicity, cell-based, L6; details: L-6 rat skeletal muscle myoblasts
Trypanosoma brucei [9] = assay: DNDI: Inhibition of Human African Trypanosomiasis, Cross 22, in vitro; format: functional, organism-based
Trypanosoma brucei [10] = assay: DNDI: Inhibition of Human African Trypanosomiasis, EATRO 110, in vitro; format: functional, organism-based
[11] = tested on: Trypanosoma brucei rhodesiense; assay: DNDI: Inhibition of Human African Trypanosomiasis (HAT), STIB 900, in vitro; format: functional, organism-based
Leishmania donovani = assay: DNDI: Inhibition of formation of Leishmania donovani (strain MHOM/ET/67/L82) axenic amastigotes, in vitro.; format: functional, organism-based
Plasmodium falciparum = assay: DNDI: Inhibition of the malaria parasite Plasmodium falciparum, in vitro; format: functional, organism-based; details: K1
[12] = DNDI: half life in human liver microsomes at a concentration of 10uM; format: ADME, Microsome
[13] = DNDI: in vitro intrinsic clearance in human liver microsomes at a concentration of 10uM; format: ADME, Microsome
[14] = DNDI: in vitro intrinsic clearance in mouse liver microsomes at a concentration of 10uM; format: ADME, Microsome; details: read-out: CLint in vitro
[15] = DNDI: half life in mouse liver microsomes at a concentration of 10uM; format: ADME, Microsome
MDR1 (ABCB1) [16] = biological target: T1, MDR1 (ABCB1) (Homo sapiens, UniProt P08183); assay: DNDI: % of compound recovered from apical to basolateral permeability assay in MDCK cells transfected with human MDR1; format: ADME, cell-based, Canis lupus familiaris; details: dog
MDR1 (ABCB1) [17] = biological target: T1, MDR1 (ABCB1); assay: DNDI: Apparent permeability from apical to basolateral side of the MDCK cell transfected with human MDR1; format: ADME, cell-based, Canis lupus familiaris; details: dog
MDR1 (ABCB1) [18] = biological target: T1, MDR1 (ABCB1); assay: DNDI: Apparent permeability from basolateral to apical side of the MDCK cell transfected with human MDR1 after 60 mins at a concentration of 3uM; format: ADME, cell-based, Canis lupus familiaris; details: dog
MDR1 (ABCB1) [19] = biological target: T1, MDR1 (ABCB1); assay: DNDI: % of compound recovered from basolateral to apical permeability assay in MDCK cells transfected with human MDR1; format: ADME, cell-based, Canis lupus familiaris; details: dog
MDR1 (ABCB1) [20] = biological target: T1, MDR1 (ABCB1); assay: DNDI: Efflux ratio for permeability from basolateral to apical side to apical to basolateral side of MDCK cells transfected with human MDR1; format: ADME, cell-based, Canis lupus familiaris; details: dog, read-out: B-A/A-B
[21] = DNDI: Solubility in phosphate buffered saline at pH7.4 measured by optical density (turbidimetry) at room temperature (OD-RT); format: physicochemical; details: pH 7.4
[22] = mouse, microsomes, 1 µM
Description: (§4) DNDI: in vitro intrinsic clearance in mouse liver microsomes at a concentration of 1uM

in vitro [23] = details: mouse, t (1 / 2)
Description: (§5) DNDI: half life in mouse liver microsomes at a concentration of 1uM

L929 [24] = assay: as §2; format: toxicity, cell-based; details: l929
MDR1 (ABCB1) [25] = biological target: T1, MDR1 (ABCB1); assay: DNDI: % of compound recovered from apical to basolateral permeability assay in MDCK cells transfected with human MDR1 after 60 mins at a concentration of 3uM; format: ADME, cell-based, Canis lupus familiaris; details: dog
MDR1 (ABCB1) [26] = biological target: T1, MDR1 (ABCB1); assay: DNDI: Apparent permeability from apical to basolateral side of the MDCK cell transfected with human MDR1after 60 mins at a concentration of 3uM; format: ADME, cell-based, Canis lupus familiaris; details: dog, MDCK-MDR1
MDR1 (ABCB1) [27] = biological target: T1, MDR1 (ABCB1); assay: DNDI: % of compound recovered from apical to basolateral permeability assay in MDCK cells transfected with human MDR1 after 60 mins at a concentration of 3uM in the presence of GF120918; format: ADME, cell-based, Canis lupus familiaris; details: dog, MDCK-MDR1, with GF120918 (concentration not stated)
L929 [28] = assay: as §1; format: toxicity, cell-based; details: l929
Trypanosoma brucei [29] = assay: (§3) DNDI: Mean survival time in days (MSD) of mice after intraperitoneal injection of Human African Trypanosomiasis (HAT), EATRO 110, in vivo at 20 mg/kg/day for 4 days.; format: functional, Mus musculus
Trypanosoma brucei [30] = assay: DNDI: Mean survival time in days (MSD) of mice after intraperitoneal injection of Human African Trypanosomiasis (HAT), EATRO 110, in vivo at 5 mg/kg/day for 4 days.; format: functional, Mus musculus
Trypanosoma brucei [31] = assay: as §3; format: functional, Mus musculus; remark: listed apart in the source
[32] = mouse, microsomes, 1 µM; remark: listed apart in the source
Description: as §5

in vitro [33] = details: human, liver microsomes, t (1 / 2)
Description: DNDI: half life in human liver microsomes at a concentration of 1uM

in vitro [34] = details: human, liver microsomes, CLint in vitro
Description: DNDI: in vitro intrinsic clearance in human liver microsomes at a concentration of 1uM

in vitro [35] = details: mouse, liver microsomes
Description: as §4

[36] = Trypanosoma brucei, SBRI 427, read-out: IC50

T1 sequence (P08183 whole entry): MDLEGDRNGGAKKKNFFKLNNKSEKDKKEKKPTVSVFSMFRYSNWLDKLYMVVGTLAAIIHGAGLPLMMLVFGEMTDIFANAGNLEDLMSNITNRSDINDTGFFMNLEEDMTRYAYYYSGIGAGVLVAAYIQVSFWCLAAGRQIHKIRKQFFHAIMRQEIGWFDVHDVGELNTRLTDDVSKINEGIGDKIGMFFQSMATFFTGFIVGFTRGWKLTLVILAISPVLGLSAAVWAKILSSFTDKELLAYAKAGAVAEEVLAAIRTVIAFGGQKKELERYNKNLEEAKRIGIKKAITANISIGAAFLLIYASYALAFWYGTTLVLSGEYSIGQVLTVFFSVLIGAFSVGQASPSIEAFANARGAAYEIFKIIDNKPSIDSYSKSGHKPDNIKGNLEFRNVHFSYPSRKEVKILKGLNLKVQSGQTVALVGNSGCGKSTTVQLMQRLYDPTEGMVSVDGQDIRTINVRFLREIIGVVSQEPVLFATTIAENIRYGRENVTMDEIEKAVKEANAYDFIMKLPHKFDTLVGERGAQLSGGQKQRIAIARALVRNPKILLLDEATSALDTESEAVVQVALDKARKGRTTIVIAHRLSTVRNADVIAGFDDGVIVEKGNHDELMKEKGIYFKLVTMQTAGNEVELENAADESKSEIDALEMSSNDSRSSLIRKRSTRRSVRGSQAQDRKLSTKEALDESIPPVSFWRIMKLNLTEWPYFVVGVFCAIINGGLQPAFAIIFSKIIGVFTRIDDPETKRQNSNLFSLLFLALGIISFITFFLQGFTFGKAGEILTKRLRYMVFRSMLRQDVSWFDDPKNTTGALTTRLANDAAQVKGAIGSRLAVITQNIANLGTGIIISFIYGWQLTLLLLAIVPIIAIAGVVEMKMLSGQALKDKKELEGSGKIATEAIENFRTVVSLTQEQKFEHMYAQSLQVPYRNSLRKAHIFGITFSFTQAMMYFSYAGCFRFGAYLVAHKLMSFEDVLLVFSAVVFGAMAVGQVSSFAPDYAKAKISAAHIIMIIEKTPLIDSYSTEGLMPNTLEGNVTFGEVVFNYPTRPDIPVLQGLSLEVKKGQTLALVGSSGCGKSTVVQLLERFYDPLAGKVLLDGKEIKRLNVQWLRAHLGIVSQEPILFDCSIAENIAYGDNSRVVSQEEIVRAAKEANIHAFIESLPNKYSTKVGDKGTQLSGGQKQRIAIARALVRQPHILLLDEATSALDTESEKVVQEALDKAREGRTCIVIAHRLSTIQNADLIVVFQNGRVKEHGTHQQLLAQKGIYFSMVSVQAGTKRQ

SMILES | IC50 at 72 h [1] [µg/mL] | IC50 (Trypanosoma brucei [2]; [36]) [µg/mL] | chromatographic logD [3] | half-life at 1 µM [4] [min] | half-life at 10 µM [5] [min] | solubility kinetic [6] [µM] | IC50 (Trypanosoma cruzi) [µg/mL] | IC50 at 24 h [7] [µg/mL] | IC50 [8] [µg/mL] | IC50 (Trypanosoma brucei [9]) [µg/mL] | IC50 (Trypanosoma brucei [10]) [µg/mL] | IC50 [11] [µg/mL] | IC50 (Leishmania donovani) [µg/mL] | IC50 (Plasmodium falciparum) [µg/mL] | half-life at 10 µM [12] [min] | CLint in vitro [13] [µL/min/mg] | microsomal CLint at 10 µM [14] [µL/min/mg] | half-life at 10 µM [15] [min] | CLint in vitro [22] [µL/min/mg] | half-life at 1 µM (in vitro [23]; liver microsomes) [min] | further results
Fc1ccc(-c2cc3nc(-c4ccccc4)cc(NC4CCNCC4)n3n2)cc1 | 1.11 (≈ 2.86 µM) | 0.555 (≈ 1.43 µM) | 4.2 | > 350 | > 350 | 13 (≈ 5.04 µg/mL) |  |  |  |  |  |  |  |  |  |  |  |  |  |  | 
CCCCCC(C)NCc1coc(-c2ccc(OCC)cc2)n1 (configuration not stated) | 5.27 (≈ 16.7 µM) |  | 4.95 |  |  |  | 7.7 (≈ 24.3 µM) | > 50 | 8.28 (≈ 26.2 µM) | 0.67 (≈ 2.12 µM) | 0.8 (≈ 2.53 µM) | 0.342 (≈ 1.08 µM) | 12.3 (≈ 38.8 µM) | 1.38 (≈ 4.36 µM) | 88 | 33 | 3 | 882 | 36 | 23 | recovery (MDR1 (ABCB1) [16]): 33%; Papp A→B (MDR1 (ABCB1) [17]): 20.9 ×10⁻⁶ cm/s; Papp B→A at 1 h, 3 µM (MDR1 (ABCB1) [18]): 22 ×10⁻⁶ cm/s; recovery (MDR1 (ABCB1) [19]): 56%; efflux ratio (MDR1 (ABCB1) [20]): 1; solubility kinetic [21]: 32 µM (≈ 10.1 µg/mL)
CCOc1ccc(-c2nc(CNC3CC(C)CC(C)(C)C3)co2)cc1 (configuration not stated) | < 3.13 | 1.23 (≈ 3.59 µM) |  |  |  |  |  | 44.1 (≈ 129 µM) |  | 0.79 (≈ 2.31 µM) | 1.03 (≈ 3.01 µM) |  |  |  |  |  |  |  | 50 | 17 | IC50 (L929 [24]): 29.3 µg/mL (≈ 85.6 µM); IC50 (Trypanosoma brucei [2]): 0.79 µg/mL and 1.06 µg/mL and 1.41 µg/mL and 0.84 µg/mL
Cc1cc(N2CCNCC2)n2nc(-c3cccc(F)c3)cc2n1 | 9.09 (≈ 29.2 µM) | > 5 | 3.44 | 45.7 | 214 | 50 (≈ 15.6 µg/mL) |  |  |  |  |  |  |  |  |  |  |  |  |  |  | recovery at 1 h, 3 µM (MDR1 (ABCB1) [25]): 70.4%; Papp A→B at 1 h, 3 µM (MDR1 (ABCB1) [26]): 45.2 ×10⁻⁶ cm/s; recovery at 1 h, 3 µM (MDR1 (ABCB1) [27]): 63.6%
O/N=C(/NC1CCCCC1)c1cccnc1Oc1ccccc1 | > 10 | 1.17 (≈ 3.76 µM) | 3.92 |  |  |  | > 30 | > 50 | 43.9 (≈ 141 µM) |  |  | 27.6 (≈ 88.6 µM) | 44 (≈ 141 µM) | 4.2 (≈ 13.5 µM) | 314 | 9 | 275 | 11 | 423 |  | recovery (MDR1 (ABCB1) [16]): 66%; Papp A→B (MDR1 (ABCB1) [17]): 30.9 ×10⁻⁶ cm/s; Papp B→A at 1 h, 3 µM (MDR1 (ABCB1) [18]): 51.4 ×10⁻⁶ cm/s; recovery (MDR1 (ABCB1) [19]): 83%; efflux ratio (MDR1 (ABCB1) [20]): 1.7; solubility kinetic [21]: 63 µM (≈ 19.6 µg/mL); half-life at 1 µM (in vitro [23]; microsomes): 2 min
CCCCc1ccc(-c2nc(CNC3CC(C)CC(C)(C)C3)co2)cc1 (configuration not stated) | 0.64 (≈ 1.81 µM) |  | 5.99 |  |  | 6 (≈ 2.13 µg/mL) | 2 (≈ 5.64 µM) | > 50 | 1.73 (≈ 4.88 µM) | 0.34 (≈ 0.959 µM) |  | 0.348 (≈ 0.982 µM) | 5.26 (≈ 14.8 µM) | 0.521 (≈ 1.47 µM) |  |  |  |  | 3 | 192 | IC50 (L929 [28]): 1.26 µg/mL (≈ 3.55 µM); MSD (Trypanosoma brucei [29]): 2.5 days; MSD (Trypanosoma brucei [30]): 4 days; MSD (Trypanosoma brucei [31]): 4 days; t (1 / 2) [32]: 251 min and 224 min; half-life at 1 µM (in vitro [33]): 59 min; microsomal CLint at 1 µM (in vitro [34]): 14 µL/min/mg; microsomal CLint at 1 µM (in vitro [35]): 4 µL/min/mg
